In the first assay the test system is BJAB (malignant human B-cell-line). The assay is described as follows: BJAB cell proliferation. The format is cell-based. Conditions: BJAB (malignant human B-cell-line) cell proliferation, EC50; read-out: BJAB. The source says:
In certain embodiments, the therapeutic compound is one of the compounds of the compound table below. […] In certain embodiments, the therapeutic compound is a compound having an activity as “A,” “B” or “C” in the table below. In certain embodiments, the therapeutic compound is a compound having an activity as “A” or “B” in the table below. In certain embodiments, the therapeutic compound is a compound having an activity as “A” in the table below.
In certain embodiments, the therapeutic compound is one of the compounds of the compound table below, optionally provided as a pharmaceutically-acceptable salt or N-oxide, and/or a solvate or hydrate. […] In certain embodiments, the therapeutic compound is a compound having an activity as “A,” “B” or “C” in the table below. In certain embodiments, the therapeutic compound is a compound having an activity as “A” or “B” in the table below. In certain embodiments, the therapeutic compound is a compound having an activity as “A” in the table below.
In the case of `Cc1nn(-c2nc(C3=CCC(C(F)(F)F)CC3)c(SC(C)C)s2)c(C(=O)O)c1-c1cccc(F)c1` (stereo not drawn) [Compound B5, 4-(3-fluorophenyl)-1-(5-(isopropylthio)-4-(4-(trifluoromethyl)cyclohex-1-en-1-yl)thiazol-2-yl)-3-methyl-1H-pyrazole-5-carboxylic acid], the EC50 is under 1 µM. The same measure, in the same setting: under `COCCOCC(=O)Nc1ccc(-c2sc(-n3nc(C)c(-c4cccc(F)c4)c3C(=O)O)nc2-c2ccc(C(F)(F)F)cc2)cc1` [Compound B52, 4-(3-fluorophenyl)-1-(5-(4-(2-(2-methoxyethoxy)acetamido)phenyl)-4-(4-(trifluoromethyl)phenyl)thiazol-2-yl)-3-methyl-1H-pyrazole-5-carboxylic acid] stands 10 to 25 µM; under `COCCNC(=O)CCc1sc(-n2nc(C)c(-c3cccc(F)c3)c2C(=O)O)nc1-c1ccc(C(F)(F)F)cc1` [Compound B53, 4-(3-fluorophenyl)-1-(5-(3-((2-methoxyethyl)amino)-3-oxopropyl)-4-(4-(trifluoromethyl)phenyl)thiazol-2-yl)-3-methyl-1H-pyrazole-5-carboxylic acid], over 20 µM; under `COCCN(C)C(=O)CCc1sc(-n2nc(C)c(-c3cccc(F)c3)c2C(=O)O)nc1-c1ccc(C(F)(F)F)cc1` [Compound B54, 4-(3-fluorophenyl)-1-(5-(3-((2-methoxyethyl)(methyl)amino)-3-oxopropyl)-4-(4-(trifluoromethyl)phenyl)thiazol-2-yl)-3-methyl-1H-pyrazole-5-carboxylic acid], over 20 µM.

Take `COCC(=O)N(C)c1ccc(-c2sc(-n3nc(C)c(-c4cccc(F)c4)c3C(=O)O)nc2-c2ccc(C(F)(F)F)cc2)cc1` [Compound B55, 4-(3-fluorophenyl)-1-(5-(4-(2-methoxy-N-methylacetamido)phenyl)-4-(4-(trifluoromethyl)phenyl)thiazol-2-yl)-3-methyl-1H-pyrazole-5-carboxylic acid]: the EC50 was over 20 µM.

In the case of `COCCOCC(=O)N(C)c1ccc(-c2sc(-n3nc(C)c(-c4cccc(F)c4)c3C(=O)O)nc2-c2ccc(C(F)(F)F)cc2)cc1` [Compound B56, 4-(3-fluorophenyl)-1-(5-(4-(2-(2-methoxyethoxy)-N-methylacetamido)phenyl)-4-(4-(trifluoromethyl)phenyl)thiazol-2-yl)-3-methyl-1H-pyrazole-5-carboxylic acid], the EC50 is over 20 µM. `COCc1sc(-n2nc(C)c(-c3cccc(F)c3)c2C(=O)O)nc1-c1ccc(C(F)(F)F)cc1` [Compound B57, 4-(3-fluorophenyl)-1-(5-(methoxymethyl)-4-(4-(trifluoromethyl)phenyl)thiazol-2-yl)-3-methyl-1H-pyrazole-5-carboxylic acid]: the EC50 was 5 to 10 µM. For the molecule `CCOCCOCCOc1ccc(-c2sc(-n3nc(C)c(-c4cccc(F)c4)c3C(=O)O)nc2-c2ccc(C(F)(F)F)cc2)cc1` [Compound B58, 1-(5-(4-(2-(2-ethoxyethoxy)ethoxy)phenyl)-4-(4-(trifluoromethyl)phenyl)thiazol-2-yl)-4-(3-fluorophenyl)-3-methyl-1H-pyrazole-5-carboxylic acid], the EC50 lay in the range of 1 to 5 µM. Turning to `Cc1nn(-c2nc(-c3ccc(C(F)(F)F)cc3)c(-c3cccc(F)c3)s2)c(C(=O)O)c1-c1cccc(F)c1` [Compound B59, 4-(3-fluorophenyl)-1-(5-(3-fluorophenyl)-4-(4-(trifluoromethyl)phenyl)thiazol-2-yl)-3-methyl-1H-pyrazole-5-carboxylic acid], the EC50 was under 1 µM. Same read-out and setting: under `Cc1nn(-c2nc(-c3ccc(C(F)(F)F)cc3)c(CO)s2)c(C(=O)O)c1-c1cccc(F)c1` [Compound B60, 4-(3-fluorophenyl)-1-(5-(hydroxymethyl)-4-(4-(trifluoromethyl)phenyl)thiazol-2-yl)-3-methyl-1H-pyrazole-5-carboxylic acid] stands over 20 µM.

Consider `Cc1nn(-c2nc(N3CCC(C(F)(F)F)CC3)c(-c3ccc(C(F)(F)F)cc3)s2)c(C(=O)O)c1-c1cccc(F)c1` [Compound B61, 4-(3-fluorophenyl)-3-methyl-1-(5-(4-(trifluoromethyl)phenyl)-4-(4-(trifluoromethyl)piperidin-1-yl)thiazol-2-yl)-1H-pyrazole-5-carboxylic acid], for which the EC50 is under 1 µM. Same read-out and setting: under `Cc1nn(-c2nc(-c3cccc(F)c3)c(-c3ccc(C(F)(F)F)cc3)s2)c(C(=O)O)c1-c1cccc(F)c1` [Compound B62, 4-(3-fluorophenyl)-1-(4-(3-fluorophenyl)-5-(4-(trifluoromethyl)phenyl)thiazol-2-yl)-3-methyl-1H-pyrazole-5-carboxylic acid] stands 5 to 10 µM. On the same count and under the same terms, then `Cc1nn(-c2nc(-c3ccc(C(F)(F)F)cc3)c(C(C)O)s2)c(C(=O)O)c1-c1cccc(F)c1` (stereo not drawn) [Compound B63, 4-(3-fluorophenyl)-1-(5-(1-hydroxyethyl)-4-(4-(trifluoromethyl)phenyl)thiazol-2-yl)-3-methyl-1H-pyrazole-5-carboxylic acid], with over 20 µM; and `Cc1nn(-c2nc(-c3ccc(C(F)(F)F)cc3)c(CCO)s2)c(C(=O)O)c1-c1cccc(F)c1` [Compound B64, 4-(3-fluorophenyl)-1-(5-(2-hydroxyethyl)-4-(4-(trifluoromethyl)phenyl)thiazol-2-yl)-3-methyl-1H-pyrazole-5-carboxylic acid], with over 20 µM; and `COCCOc1ccc(-c2sc(-n3nc(C)c(-c4cccc(F)c4)c3C(=O)O)nc2-c2ccc(C(F)(F)F)cc2)cc1` [Compound B65, 4-(3-fluorophenyl)-1-(5-(4-(2-methoxyethoxy)phenyl)-4-(4-(trifluoromethyl)phenyl)thiazol-2-yl)-3-methyl-1H-pyrazole-5-carboxylic acid], with 1 to 5 µM.

As for `COC(C)c1sc(-n2nc(C)c(-c3cccc(F)c3)c2C(=O)O)nc1-c1ccc(C(F)(F)F)cc1` (stereo not drawn) [Compound B66, 4-(3-fluorophenyl)-1-(5-(1-methoxyethyl)-4-(4-(trifluoromethyl)phenyl)thiazol-2-yl)-3-methyl-1H-pyrazole-5-carboxylic acid], the EC50 is 5 to 10 µM.

`Cc1nn(-c2nc(N3CCC(C(C)C)CC3)c(SC(C)C)s2)c(C(=O)O)c1-c1cccc(F)c1` [Compound B67, 4-(3-fluorophenyl)-1-(4-(4-isopropylpiperidin-1-yl)-5-(isopropylthio)thiazol-2-yl)-3-methyl-1H-pyrazole-5-carboxylic acid]: the EC50 was in the range of 1 to 5 µM.

In another assay the test system is ATF4. The assay is described as follows: ATF4 induction by immunofluorescence in HCT-116 cells transfected with tGFP or FAM210B-GFP. It is filed as cell-based, human. More on the design: compound mediated ATF4 induction versus FAM210B expression: dose or concentration left out as unconfirmed.
Details: not given
An excerpt: FIG. 17 is a set of fluorescence micrographs of HCT-116 cells transfected with a vector expressing tGFP (left) or FAM210B-GFP (right).
FIG. 18 is a graph of ATF4 expression versus GFP expression for HCT-116 cells transfected with a vector expressing tGFP or FAM210B-GFP.
HCT-116 cells were transfected with a vector expressing tGFP or FAM210B-GFP. […] Following 4 hrs of drug treatment the cells were fixed, permeabilized, and ATF4 levels determined by immunofluorescence (IF), and FAM210B levels were determined by detection of GFP. Cells were binned based on median ATF4 protein expression and ranked relative to level of FAM210B-tGFP.
As for arsenite [reference compound], the “effect of FAM210B expression on induction of ATF4 by the agent” value is “no effect”.

Still in this assay, the particulars now being: HCT-116 transfected with tGFP or FAM210B-GFP; 4 hrs; immunofluorescence.
Take `Cc1nn(-c2nc(C3=CCC(C(F)(F)F)CC3)c(SC(C)C)s2)c(C(=O)O)c1-c1cccc(F)c1` (stereo not drawn) [Compound B5, 4-(3-fluorophenyl)-1-(5-(isopropylthio)-4-(4-(trifluoromethyl)cyclohex-1-en-1-yl)thiazol-2-yl)-3-methyl-1H-pyrazole-5-carboxylic acid]: the “compound mediated ATF4 induction versus FAM210B expression” value is on record as “induction of ATF4 is inhibited by FAM210B expression in HCT-116 cells”.

The same assay, now with this note: alternate pathways of ATF4 induction.
tunicamycin [reference compound]: the “effect of FAM210B expression on induction of ATF4 by the agent” value was “no effect”.

Still in this assay, the particulars now being: follow-up studies.
`Cc1nn(-c2nc(C3=CCC(C(F)(F)F)CC3)c(SC(C)C)s2)c(C(=O)O)c1-c1cccc(F)c1` (stereo not drawn) [Compound B5, 4-(3-fluorophenyl)-1-(5-(isopropylthio)-4-(4-(trifluoromethyl)cyclohex-1-en-1-yl)thiazol-2-yl)-3-methyl-1H-pyrazole-5-carboxylic acid]: the “effect of PERK inhibitors on compound mediated induction of ATF4” value was “no effect”.

The values are drawn from patent US20210278408A1, “METHODS OF TREATMENT OF CANCER WITH SUBSTITUTED PYRROLE AND PYRAZOLE COMPOUNDS AND DIAGNOSIS OF CANCERS SUSCEPTIBLE TO TREATMENT WITH SUBSTITUTED PYRROLE AND PYRAZOLE COMPOUNDS” (Bantam Pharmaceutical, LLC, priority 2018, published 2021).
